Measured values reported in patent US20250382255A1, “ERYTHRITOL ESTER OF PHENYL BUTYRIC ACID” (AAYAM THERAPEUTICS LLC, priority 2022, published 2025).
Like-named read-outs stand apart in the source and are kept apart here.

Experiment: Pharmacokinetics (PK) study, plasma exposure of PBA after oral dosing of PBA analogues
Assay type: in vivo, SD rats
Method: Pharmacokinetics (PK) study was carried out to evaluate the plasma exposure of two PBA analogues (ATX-2022-018 and ATX-2022-034), when dosed orally (PO) at 22.5 mg/kg in 50% Propylene glycol. Dosing was done in overnight fasted SD rats (n=6). After oral (PO) administration blood was collected by serial bleeding at 8 different time points in heparinized tubes. Blood samples were centrifuged at 10,000 rpm for 5 min. at 4° C. to obtain the plasma, which were aspirated into separate labeled tubes and stored at −80° C. Extraction solvent was added to plasma (150 μL 0.1% acetic acid in water: 0.1% acetic acid Methanol, 20:80) was vortexed and shaken on shaker for 10 minutes, centrifuged at 10,000 rpm for 10 minutes at 4° C. Supernatant was used for LC-MS analysis. Parent drug generated that is PBA was monitored by LC-MS (API3200).
Details of the LC column and mobile phase used for the analysis is provided below: • Column: Gemini NX C18, 50 mm*4.6 mm*3.5μ • Mobile Phase: A: 0.1% Acetic in Water • B: 0.1% Acetic acid in Methanol • Flow rate: 0.600 mL/min, gradient program
Acetonitrile and plasma calibration curves were generated and percentage of drug recovery from plasma determined. Quantitative analysis was done by liquid chromatography tandem mass spectrometer (API3200 LC-MS/MS). Cmax, Tmax, AUC and t½ were calculated using Graph Pad PRISM version 5.04.

[1] = SD, rat, in vivo, po, 22.5 mg/kg
[2] = PBA monitored in plasma by LC-MS, overnight fasted SD rats, PO 22.5 mg/kg in 50% Propylene glycol

AUC [1] | CHANGE of AUC (Increase) [1] | CHANGE of CL (Decrease) [1] | CHANGE of Cmax (Increase) [1] | CHANGE of MRT (Increase) [1] | CHANGE of Vd (Decrease) [1] | CL [1] | Cmax [1] | MRT [1] | Tmax [1] | Vd [1] | SMILES | AUC [2] | CL [2] | MRT [2] | Tmax [2] | Vd [2] | Cmax (PBA monitored in plasma by LC-MS, overnight fasted SD rats, PO 22.5 mg/kg in 50% Propylene glycol, read-out: Cmax)
104,814 nM · h | Increase 3-fold | Decrease 2.7-fold | Increase 4-fold | Increase 1.5-fold | Decrease 2.75-fold | 225 mL/h | 51.3 µM | 36 min | 12 min | 2,600 ml | O=C(CCCc1ccccc1)OC[C@H](OC(=O)CCCc1ccccc1)[C@@H](COC(=O)CCCc1ccccc1)OC(=O)CCCc1ccccc1 [ERYTHRITOL ANALOG OF PBA, (2R,3S)-butane-1,2,3,4-tetrayl tetrakis(4-phenylbutanoate)] | – | – | – | – | – | –
– | – | – | – | – | – | – | – | – | – | – | O=C(CCCc1ccccc1)OC[C@H](OC(=O)CCCc1ccccc1)[C@H](COC(=O)CCCc1ccccc1)OC(=O)CCCc1ccccc1 [THREITOL ANALOG OF PBA, (2S,3S)-butane-1,2,3,4-tetrayl-tetrakis(4-phenylbutanoate), reference compound] | 37,594 nM · h | 600 mL/h | 24 min | 18 min | 7,161 ml | 12.5 µM
